Marks after values point to notes of the source that are not given here.
Key:
Type in all cases: cell-based
Human dendritic cells [1] = assay: CD86 levels at the DC cell surface (flow cytometry); details: 100 μg, 48 hours
Method: (§1) Human dendritic cells were obtained from Clonetics (San Diego, Calif., USA) and were cultured in the medium recommended by Clonetics. DC were obtained from three different individuals (see Table 1). Major histocompatability typing was performed on each of these individuals and several of the HLA (human leukocyte antigens) types are shown.
(§2) DC from individuals B and C were seeded in 1.0 ml at 1.0×10^5 cells/ml in 6-well flat-bottomed tissue culture plates for 48 hours with 100 μg of 6 base N1A, N1B, N2A, N2B, N3A, N3B, N4A, N4B, N5A, N5B, N6A, N6B, N7A or N7B polynucleotides. The level of CD86 at the cell surface was determined after 48 hours of incubation by flow cytometry using a PE-conjugated monoclonal antibody directed to CD86 (Serotec) and analyzed by CELLQuest Pro. Results are expressed as the percentage of CD86^hi DC following treatment.

Human dendritic cells [2] = assay: Induction of IFN-gamma production by DC (ELISA); details: 100 μg, 48 hours
Method: as §1
DC were seeded in 1.0 ml at 1.0×10^5 cells/ml in 6-well flat-bottomed tissue culture plates for 48 hours with 100 μg of6 base N1A, N1B, N2A, N2B, N3A, N3B, N4A, N4B, N5A, N5B, N6A, N6B, N7A or N7B polynucleotides. Production of IFN-gamma was determined in 100 μl of culture supernatant using a commercial ELISA (BioSource) after 48 hours of incubation. Results are expressed as the “fold” (x) increase in IFN-gamma production by treated DC compared to control cells.

Human dendritic cells [3] = assay: Induction of IL-1beta production by DC (ELISA); details: 100 μg, 48 hours
Method: as §1
DC were seeded in 1.0 ml at 1.0×10^5 cells/ml in 6-well flat-bottomed tissue culture plates for 48 hours with 100 μg of 6 base N1A, N1B, N2A, N2B, N3A, N3B, N4A, N4B, N5A, N5B, N6A, N6B, N7A or N7B polynucleotides. Production of IL-1beta was determined in 100 μl of culture supernatant using a commercial ELISA (BioSource, Camarillo, Calif., USA) after 48 hours of incubation. Results are expressed as the “fold” (x) increase in IL-1beta production by treated DC compared to control cells.

Human dendritic cells [4] = assay: Induction of IL-12 production by DC (ELISA); details: 100 μg, 48 hours
Method: as §1
DC were seeded in 1.0 ml at 1.0×10^5 cells/ml in 6-well flat-bottomed tissue culture plates for 48 hours with 100 μg of 6 base N1A, N1B, N2A, N2B, N3A, N3B, N4A, N4B, N5A, N5B, N6A, N6B, N7A or N7B polynucleotides. Production of IL-12 was determined in 100 μl of culture supernatant using a commercial ELISA (BioSource) after 48 hours of incubation. Results are expressed as the “fold” (x) increase in IL-12 production by treated DC compared to control cells.

Human dendritic cells [5] = assay: CD40 levels at the DC cell surface (flow cytometry); details: 100 μg, 48 hours
Method: as §1
DC from individuals B and C were seeded in 1.0 ml at 1.0×10^5 cells/ml in 6-well flat-bottomed tissue culture plates for 48 hours with 100 μg of 6 base N1A, N1B, N2A, N2B, N3A, N3B, N4A, N4B, N5A, N5B, N6A, N6B, N7A or N7B polynucleotides. The level of CD40 at the cell surface was determined after 48 hours of incubation by flow cytometry (FACSCalibur system) using a FITC-conjugated monoclonal antibody directed to CD40 and analyzed by CELLQuest Pro (all from Becton Dickinson). Results are expressed as the percentage of CD40^hi DC following treatment. The term “CD40^hi” refers to a population of cells identified by flow cytometry as having higher than baseline expression of CD40.

Human dendritic cells [6] = assay: MHC-II levels at the DC cell surface (flow cytometry); details: DC from individual B; 100 μg, 48 hours
Method: as §1
as §2, with “individual” for “individuals”, “B” for “B and C”, “N3B,” for “N3B, N4A, N4B,”, “MHC II” for “CD86”, “FITC-conjugated” for “PE-conjugated”, “MHC II^hi” for “CD86^hi”

Human dendritic cells [7] = assay: CD80 levels at the DC cell surface (flow cytometry); details: 100 μg, 48 hours
Method: as §1
as §2, with “CD80” for “CD86”, “FITC-conjugated” for “PE-conjugated”, “CD80 (Serotec, Oxford, U.K.)” for “CD86 (Serotec)”, “CELLQuest.” for “CELLQuest Pro.”, “CD80^hi” for “CD86^hi”

Human dendritic cells [8] = assay: Increase in cell size and granularity of DC (flow cytometry); details: 100 μg polynucleotide, 48 hours
Method: as §1
DC were seeded in 1.0 ml at 1.0×10^5 cells/ml in 6-well flat-bottomed tissue culture plates for 48 hours with 100 μg of 6 base N1A, N1B, N2A, N2B, N3A, N3B, N4A, N4B, N5A, N5B, N6A, N6B, N7A or N7B polynucleotides. Cell size (FCS: forward side scatter) and granularity (S SC: side light scatter) were determined by flow cytometry using a FACSCalibur and analyzed using the CELLQuest Pro software (both from Becton-Dickinson, San Diego, Calif., USA). Percentage of DC showing a FCS>500 units and a SSC>400 units have been determined after treatment with 3-OH, 5-OH polynucleotides for DC isolated from three different individuals.

Substance	The percentage of CD86^hi DC following treatment (Human dendritic cells [1]; DC from individual B) [%]	The percentage of CD86^hi DC following treatment (Human dendritic cells [1]; DC from individual C) [%]	IFN-gamma production by DC (fold increase compared to untreated DC) (Human dendritic cells [2]; DC isolated from individual A) [fold]	IFN-gamma production by DC (fold increase compared to untreated DC) (Human dendritic cells [2]; DC isolated from individual B) [fold]	IFN-gamma production by DC (fold increase compared to untreated DC) (Human dendritic cells [2]; DC isolated from individual C) [fold]	IL-1beta production by DC (fold increase compared to untreated DC) (Human dendritic cells [3]; DC isolated from individual A) [fold]	IL-1beta production by DC (fold increase compared to untreated DC) (Human dendritic cells [3]; DC isolated from individual B) [fold]	IL-1beta production by DC (fold increase compared to untreated DC) (Human dendritic cells [3]; DC isolated from individual C) [fold]	IL-12 production by DC (fold increase compared to untreated DC) (Human dendritic cells [4]; DC isolated from individual A) [fold]	IL-12 production by DC (fold increase compared to untreated DC) (Human dendritic cells [4]; DC isolated from individual B) [fold]	IL-12 production by DC (fold increase compared to untreated DC) (Human dendritic cells [4]; DC isolated from individual C) [fold]	The percentage of CD40^hi DC following treatment (Human dendritic cells [5]; DC from individual B)	The percentage of CD40^hi DC following treatment (Human dendritic cells [5]; DC from individual C) [%]	The percentage of MHC-II^hi DC following treatment (Human dendritic cells [6])	The percentage of CD80^hi DC following treatment (Human dendritic cells [7]; DC from individual B) [%]	The percentage of CD80^hi DC following treatment (Human dendritic cells [7]; DC from individual C)	Percentage of DC showing a FCS > 500 units and a SSC > 400 units (Human dendritic cells [8]; DC isolated from individual A) [%]	Percentage of DC showing a FCS > 500 units and a SSC > 400 units (Human dendritic cells [8]; DC isolated from individual B) [%]	Percentage of DC showing a FCS > 500 units and a SSC > 400 units (Human dendritic cells [8]; DC isolated from individual C) [%]
5′ GTGTGT3′ [N1B]	19	27	0.9	1.0	1.0	1.0	1.0	1.0	1.5	1.3	1.1	31** %	18	7%	11	13%	5	17	25
5′GGCCGG3′ [N4A] (DNA, all phosphodiester, methylation of C not given here)		23	1.0		1.0	0.9		1.0	1.2		1.0		16		11	21** %	4		19
5′GGCCGG3′ [N4B] (DNA, all phosphorothioate, methylation of C not given here)		32	1.0		1.0	1.0		1.0	1.3		2.6		16		9	13%	4		32
5′GGGCGG3′ [N7B] (DNA, all phosphorothioate, methylation of C not given here)		34	1.1		1.1	1.1		0.9	1.8		1.0		18	31** %	5	5%	16		31

Reference: US7371734B2, “Oligonucleotide compositions and their use for the modulation of immune responses” (Bioniche Life Sciences Inc., priority 2002, dated 2008)
